Where “and” joins values, the source holds several entries; their conditions need not be identical. Equal entries are not always repeated. Inconclusive results and toxic doses are left out.
Test system: L1210 leukemia ip in BDF1 mice, survival T/C
Experiment: NCI In Vivo Anticancer Drug Screen. Data for tumor model L1210 Leukemia (intraperitoneal) in B6D2F1 (BDF1) mice
Details: endpoint: mean survival time, higher = longer survival
Summary of the method: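 In this screen, tumor-bearing mice given compound are compared to those given vehicle, and their survival values are reported as a treated-to-control quotient.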

[1] = dose: 100.0 mg/kg/injection, schedule: Q04DX003 (ip), vehicle: saline with Tween-80
[2] = dose: 200.0 mg/kg/injection, schedule: Q04DX003 (ip), vehicle: saline with Tween-80
[3] = dose: 400.0 mg/kg/injection, schedule: Q04DX003 (ip), vehicle: saline with Tween-80
[4] = dose: 100.0 mg/kg/injection, schedule: Q01DX009 (ip), vehicle: saline with Tween-80
[5] = dose: 200.0 mg/kg/injection, schedule: Q01DX009 (ip), vehicle: saline with Tween-80
[6] = dose: 400.0 mg/kg/injection, schedule: Q01DX009 (ip), vehicle: saline with Tween-80
[7] = dose: 100.0 mg/kg/injection, schedule: Q04DX003 (ip), vehicle: saline
[8] = dose: 100.0 mg/kg/injection, schedule: Q01DX001 (ip), vehicle: other
[9] = dose: 200.0 mg/kg/injection, schedule: Q01DX001 (ip), vehicle: other
[10] = dose: 400.0 mg/kg/injection, schedule: Q01DX001 (ip), vehicle: other
[11] = dose: 100.0 mg/kg/injection, schedule: Q01DX001 (ip), vehicle: Klucel (hydroxypropylcellulose) (HPC)
[12] = dose: 200.0 mg/kg/injection, schedule: Q01DX001 (ip), vehicle: Klucel (hydroxypropylcellulose) (HPC)
[13] = dose: 400.0 mg/kg/injection, schedule: Q01DX001 (ip), vehicle: Klucel (hydroxypropylcellulose) (HPC)
[14] = dose: 100.0 mg/kg/injection, schedule: Q01DX009 (ip), vehicle: saline
[15] = dose: 100.0 mg/kg/injection, schedule: Q04DX003 (ip), vehicle: Klucel (hydroxypropylcellulose) (HPC)
[16] = dose: 200.0 mg/kg/injection, schedule: Q04DX003 (ip), vehicle: Klucel (hydroxypropylcellulose) (HPC)
[17] = dose: 400.0 mg/kg/injection, schedule: Q04DX003 (ip), vehicle: Klucel (hydroxypropylcellulose) (HPC)
[18] = dose: 50.0 mg/kg/injection, schedule: Q01DX009 (ip), vehicle: saline
[19] = dose: 200.0 mg/kg/injection, schedule: Q01DX001 (ip), vehicle: saline
[20] = dose: 400.0 mg/kg/injection, schedule: Q01DX001 (ip), vehicle: saline
[21] = dose: 100.0 mg/kg/injection, schedule: Q01DX001 (ip), vehicle: saline

## CC(C)=NC(=O)NO.[Cl][Mn][Cl]
dose: 37.5 mg/kg/injection, schedule: Q01DX009 (ip), vehicle: saline
  T/C: 105 % of control
dose: 75.0 mg/kg/injection, schedule: Q01DX001 (ip), vehicle: saline
  T/C: 91 % of control
dose: 75.0 mg/kg/injection, schedule: Q01DX009 (ip), vehicle: saline
  T/C: 111 % of control
dose: 150.0 mg/kg/injection, schedule: Q01DX001 (ip), vehicle: saline
  T/C: 104 % of control
dose: 150.0 mg/kg/injection, schedule: Q01DX009 (ip), vehicle: saline
  T/C: 105 % of control

## CCCCCCCCC1SC1CCCCCCCC(=O)N1CCCN(C(=O)CCCCCCCC2SC2CCCCCCCC)C1 (stereo not given)
[1]
  T/C: 92 % of control
[2]
  T/C: 95 % of control
[3]
  T/C: 97 % of control

## Clc1nc2nc(Cl)n(Cl)c2nc1Cl
dose: 50.0 mg/kg/injection, schedule: Q01DX009 (ip), vehicle: saline with Tween-80
  T/C: 96 % of control
[4]
  T/C: 95 % of control
[1]
  T/C: 98 % of control
[5]
  T/C: 91 % of control
[2]
  T/C: 89 % of control
[3]
  T/C: 96 % of control

## Clc1ccc(/C(=C(\Br)c2ccccc2)c2ccccc2)cc1
[4]
  T/C: 96 % of control and 98 % of control
[5]
  T/C: 95 % of control and 101 % of control
[6]
  T/C: 96 % of control and 102 % of control

## NC(=O)C(O)(c1ccccc1)c1ccccc1
dose: 100.0 mg/kg/injection, schedule: Q01DX001 (ip), vehicle: saline with Tween-80
  T/C: 100 % of control
dose: 200.0 mg/kg/injection, schedule: Q01DX001 (ip), vehicle: saline with Tween-80
  T/C: 97 % of control
dose: 400.0 mg/kg/injection, schedule: Q01DX001 (ip), vehicle: saline with Tween-80
  T/C: 101 % of control

## Clc1ccccc1Nc1c2ccccc2nc2ccccc12
[7]
  T/C: 100 % of control
dose: 200.0 mg/kg/injection, schedule: Q04DX003 (ip), vehicle: saline
  T/C: 102 % of control
dose: 400.0 mg/kg/injection, schedule: Q04DX003 (ip), vehicle: saline
  T/C: 96 % of control

## CCOC(=O)Cc1cc(=O)c2ccc(Cl)cc2[nH]1
[8]
  T/C: 92 % of control
[9]
  T/C: 97 % of control
[10]
  T/C: 92 % of control

## CCOC(=O)C(=O)c1c(C)[nH]c(C(=O)OCC)c1C
dose: 25.0 mg/kg/injection, schedule: Q04DX003 (ip), vehicle: saline
  T/C: 104 % of control
dose: 50.0 mg/kg/injection, schedule: Q04DX003 (ip), vehicle: saline
  T/C: 93 % of control
[11]
  T/C: 95 % of control
[7]
  T/C: 98 % of control
[12]
  T/C: 97 % of control
[13]
  T/C: 101 % of control

## O=C(Nc1ccc(S(=O)(=O)F)cc1)/C(=C\c1ccc([N+](=O)[O-])cc1)c1cccc2ccccc12
[14]
  T/C: 91 % of control
dose: 200.0 mg/kg/injection, schedule: Q01DX009 (ip), vehicle: saline
  T/C: 99 % of control
dose: 400.0 mg/kg/injection, schedule: Q01DX009 (ip), vehicle: saline
  T/C: 94 % of control

## CC1(C)OCC(N)(CO)CO1
dose: 100.0 mg/kg/injection, schedule: Q01DX005 (ip), vehicle: water
  T/C: 105 % of control
dose: 100.0 mg/kg/injection, schedule: Q04DX003 (ip), vehicle: water
  T/C: 109 % of control
dose: 200.0 mg/kg/injection, schedule: Q01DX005 (ip), vehicle: water
  T/C: 107 % of control
dose: 200.0 mg/kg/injection, schedule: Q04DX003 (ip), vehicle: water
  T/C: 108 % of control
dose: 400.0 mg/kg/injection, schedule: Q01DX005 (ip), vehicle: water
  T/C: 97 % of control
dose: 400.0 mg/kg/injection, schedule: Q04DX003 (ip), vehicle: water
  T/C: 98 % of control

## CCCCCCN(S(=O)(=O)c1ccc([N+](=O)[O-])cc1)S(=O)(=O)c1ccc([N+](=O)[O-])cc1
[15]
  T/C: 96 % of control
[16]
  T/C: 88 % of control
[17]
  T/C: 88 % of control

## Cc1cccc(Cl)c1NC(=O)C(C)N1CCCC1 (stereo not given)
dose: 12.5 mg/kg/injection, schedule: Q01DX009 (ip), vehicle: saline
  T/C: 101 % of control
dose: 25.0 mg/kg/injection, schedule: Q01DX009 (ip), vehicle: saline
  T/C: 98 % of control
[18]
  T/C: 93 % of control

## Cc1ccc(NC(=O)N(O)C2CCCCC2C#N)cc1 (stereo not given)
[19]
  T/C: 96 % of control
[20]
  T/C: 91 % of control

## O=C(Nc1cccc(C(F)(F)F)c1)Nc1ccccc1C(F)(F)F
dose: 100.0 mg/kg/injection, schedule: Q01DX009 (ip), vehicle: gum acacia
  T/C: 101 % of control
dose: 200.0 mg/kg/injection, schedule: Q01DX009 (ip), vehicle: gum acacia
  T/C: 101 % of control
dose: 400.0 mg/kg/injection, schedule: Q01DX009 (ip), vehicle: gum acacia
  T/C: 104 % of control

## CC(C)=CCNc1ncnc2c1ncn2C1OC(CO)C(O)C1O (stereo not given)
dose: 50.0 mg/kg/injection, schedule: Q01DX001 (ip), vehicle: saline
  T/C: 98 % of control
[18]
  T/C: 118 % of control
dose: 50.0 mg/kg/injection, schedule: Q01DX015 (ip), vehicle: saline
  T/C: 108 % of control
[21]
  T/C: 93 % of control
[14]
  T/C: 110 % of control
[15]
  T/C: 93 % of control
[1]
  T/C: 96 % of control
dose: 150.0 mg/kg/injection, schedule: Q01DX015 (ip), vehicle: saline
  T/C: 113 % of control
[19]
  T/C: 96 % of control
[16]
  T/C: 104 % of control
[2]
  T/C: 102 % of control

## S=P(Nc1ccccc1)(Nc1ccccc1)Oc1cc(Cl)c(Cl)cc1Cl
[21]
  T/C: 92 % of control
[19]
  T/C: 93 % of control
[20]
  T/C: 92 % of control

## CCCCCCCCCCOc1ccc(C=O)c(OC)c1
[15]
  T/C: 98 % of control
[16]
  T/C: 93 % of control
[17]
  T/C: 91 % of control

## COc1cc(C=Nc2cc(Cl)cc(Cl)c2)ccc1N(CCCl)CCCl
dose: 10.5 mg/kg/injection, schedule: Q01DX015 (ip), vehicle: carboxymethylcellulose (CMC)
  T/C: 114 % of control and 116 % of control
dose: 18.0 mg/kg/injection, schedule: Q01DX015 (ip), vehicle: carboxymethylcellulose (CMC)
  T/C: 113 % of control and 117 % of control
dose: 30.0 mg/kg/injection, schedule: Q01DX015 (ip), vehicle: carboxymethylcellulose (CMC)
  T/C: 123 % of control
dose: 50.0 mg/kg/injection, schedule: Q01DX001 (ip), vehicle: carboxymethylcellulose (CMC)
  T/C: 123 % of control
dose: 50.0 mg/kg/injection, schedule: Q01DX001 (ip), vehicle: other
  T/C: 105 % of control
dose: 50.0 mg/kg/injection, schedule: Q01DX015 (ip), vehicle: carboxymethylcellulose (CMC)
  T/C: 122 % of control
dose: 100.0 mg/kg/injection, schedule: Q01DX001 (ip), vehicle: carboxymethylcellulose (CMC)
  T/C: 157 % of control
[8]
  T/C: 118 % of control
dose: 150.0 mg/kg/injection, schedule: Q01DX001 (ip), vehicle: carboxymethylcellulose (CMC)
  T/C: 116 % of control
dose: 200.0 mg/kg/injection, schedule: Q01DX001 (ip), vehicle: carboxymethylcellulose (CMC)
  T/C: 123 % of control
[9]
  T/C: 123 % of control
[10]
  T/C: 111 % of control
dose: 800.0 mg/kg/injection, schedule: Q01DX001 (ip), vehicle: other
  T/C: 120 % of control

## CC(=O)N(C)C1=C(Sc2ccc([N+](=O)[O-])cc2)C(=O)c2ccccc2C1=O
dose: 50.0 mg/kg/injection, schedule: Q04DX003 (ip), vehicle: other
  T/C: 92 % of control
[8]
  T/C: 97 % of control
dose: 100.0 mg/kg/injection, schedule: Q04DX003 (ip), vehicle: other
  T/C: 97 % of control
[9]
  T/C: 96 % of control
dose: 200.0 mg/kg/injection, schedule: Q04DX003 (ip), vehicle: other
  T/C: 86 % of control
[10]
  T/C: 92 % of control

## C(=N\n1cnnc1)/c1ccccc1/C=N/n1cnnc1
[4]
  T/C: 116 % of control
[1]
  T/C: 103 % of control
[5]
  T/C: 96 % of control
[2]
  T/C: 100 % of control
[6]
  T/C: 89 % of control
[3]
  T/C: 89 % of control

## COc1ccccc1/C=N/N=C(/N)N[N+](=O)[O-]
[11]
  T/C: 102 % of control
[12]
  T/C: 101 % of control
[13]
  T/C: 98 % of control

## Cc1cccc(C)c1SSc1c(C)cccc1C
dose: 50.0 mg/kg/injection, schedule: Q04DX002 (ip), vehicle: other
  T/C: 96 % of control
dose: 100.0 mg/kg/injection, schedule: Q04DX002 (ip), vehicle: other
  T/C: 108 % of control
dose: 200.0 mg/kg/injection, schedule: Q04DX002 (ip), vehicle: other
  T/C: 101 % of control

— PubChem BioAssay AID248 (DTP/NCI, 2004)
